According to patent US20230027361A1, “METTL3 MODULATORS” (priority 2019, published 2023):
Like-named read-outs stand apart in the source and are kept apart here.

Tests used:
PRMT5-MEP50 = PRMT5-MEP50 (Homo sapiens, UniProt O14744); experiment: PRMT5 Assay (PRMT5 biochemical assay)
Summary of the method: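 Radiometric methyltransferase read-out: after 60 min reaction, excess unlabelled SAM (15 μM) stops turnover and biotinylated H4 peptide (100 nM) carrying 3H-methyl from 250 nM 3H-SAM is captured on streptavidin flashplates (2 h, 25° C) for scintillation counting. Enzyme, 2.5 nM PRMT5-MEP50, was preincubated 5 min with compound in pH 8.0 Tris buffer with DTT and Tween.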

METTL3/METTL14 = METTL3/METTL14 (Homo sapiens, UniProt Q86U44); experiment: METTL3-14 Standard Enzyme Assay (METTL3 biochemical assay)
Summary of the method: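 Tritium transfer from ³H-SAM (100 nM) to biotinylated RNA (100 nM) captured on streptavidin flashplates and counted by scintillation. Enzyme complex (2.5 nM) with compound, 5 min preincubation, 30 min reaction at ambient temperature, HEPES pH 7.5 buffer, stopped by excess unlabeled SAM.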

MOLM-13 cells [1] = experiment: MOLM-13 96 Hour Cell Proliferation Assay; type: cell-based; settings: Homo sapiens
Summary of the method: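 MOLM-13 cells in RPMI 1640 with 10% FBS were plated overnight at 37 °C, then exposed to compound dilutions at 0.25% DMSO final for 96 h. Viability was read by CellTiter-Glo luminescence, normalised to staurosporine (100% death) and DMSO (0% death) controls, and IC50 was fitted by 4-parameter logistic regression.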

[2] = tested on: m6A in cellular mRNA of MOLM-13 cells; experiment: m6A-mRNA LC-MS/MS Assay (m6A cellular assay); type: cell-based; settings: Homo sapiens, MOLM-13, read-out: m^6A IC50
Procedure: Cells were harvested by centrifugation followed by mRNA extraction using DIRECT Dynabeads mRNA DIRECT kit (Life Technologies). mRNA was quantified on NanoDrop spectrophotometer (Thermo Fisher Scientific) and digested into single nucleosides using Nucleoside Digestion Mix (New England Biolabs). […] Quantification is performed in comparison with the standard curve, obtained from pure nucleoside standards (Selleck Chemicals) running with the same batch of samples. Percentage m^6A in cellular mRNA is calculated as 100*(m^6A/A).

MOLM-13 cells [3] = experiment: MOLM-13 48 Hour Cell Proliferation Assay; type: cell-based; settings: Homo sapiens
Summary of the method: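 IC50 derived by 4-parameter logistic regression of CellTiter-Glo luminescence, scaled between DMSO (0% death) and staurosporine (100% death) controls. Compounds applied for 48 h at 37 °C as 10-point, 4-fold dilutions, 0.25% DMSO final, to MOLM-13 cells pre-seeded overnight in RPMI 1640 plus 10% FBS.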

METTL1/WDR4 = METTL1/WDR4 (Homo sapiens, UniProt Q9UBP6); experiment: METTL1 Assay (METTL1 biochemical assay)
Summary of the method: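 Radiometric methyltransfer by METTL1/WDR4 (6.25 nM f.c., 5 min preincubation) at ambient temperature in HEPES pH 7.5, KCl, MgCl2, DTT; started with 25 nM 3′-biotinylated RNA and 60 nM 3H-SAM, run 20 min, quenched with 15 μM cold SAM. Product captured on streptavidin flashplates (2 h, 25° C), counted by scintillation.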

[4] = PRMT5 biochemical assay, read-out: PRMT5 IC50
[5] = METTL3 biochemical assay, read-out: METTL3 IC50
[6] = read-out: METTL1 IC50, METTL1 biochemical assay

Chain of PRMT5-MEP50 (O14744 whole entry): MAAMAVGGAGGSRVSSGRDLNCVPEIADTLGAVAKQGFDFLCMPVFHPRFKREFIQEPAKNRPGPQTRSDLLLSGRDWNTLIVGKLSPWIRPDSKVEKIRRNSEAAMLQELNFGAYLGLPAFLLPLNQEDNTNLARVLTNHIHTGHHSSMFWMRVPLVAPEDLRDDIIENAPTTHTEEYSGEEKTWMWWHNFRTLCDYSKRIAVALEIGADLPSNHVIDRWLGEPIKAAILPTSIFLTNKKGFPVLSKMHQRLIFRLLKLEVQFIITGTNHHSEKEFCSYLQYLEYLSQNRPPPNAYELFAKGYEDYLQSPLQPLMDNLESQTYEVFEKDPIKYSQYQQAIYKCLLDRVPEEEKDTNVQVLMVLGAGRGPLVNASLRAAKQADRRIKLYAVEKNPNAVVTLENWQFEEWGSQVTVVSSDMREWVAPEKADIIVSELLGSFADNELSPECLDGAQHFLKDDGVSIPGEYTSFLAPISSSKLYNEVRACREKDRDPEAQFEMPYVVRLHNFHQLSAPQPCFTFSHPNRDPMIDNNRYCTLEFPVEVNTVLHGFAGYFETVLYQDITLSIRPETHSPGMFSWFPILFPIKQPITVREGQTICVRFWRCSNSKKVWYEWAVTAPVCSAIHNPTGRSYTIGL
Chain of PRMT5-MEP50 (Q9BQA1 whole entry partner): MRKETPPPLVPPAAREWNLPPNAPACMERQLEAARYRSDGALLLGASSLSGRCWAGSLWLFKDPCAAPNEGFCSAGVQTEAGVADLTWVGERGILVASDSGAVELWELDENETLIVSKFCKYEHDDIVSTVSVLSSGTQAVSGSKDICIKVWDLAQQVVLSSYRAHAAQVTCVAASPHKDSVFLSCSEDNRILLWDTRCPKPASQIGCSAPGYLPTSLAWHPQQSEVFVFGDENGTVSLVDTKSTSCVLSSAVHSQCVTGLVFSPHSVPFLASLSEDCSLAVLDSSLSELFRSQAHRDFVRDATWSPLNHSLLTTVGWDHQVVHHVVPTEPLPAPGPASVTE
Chain of METTL3/METTL14 (Q86U44 whole entry, species assumed): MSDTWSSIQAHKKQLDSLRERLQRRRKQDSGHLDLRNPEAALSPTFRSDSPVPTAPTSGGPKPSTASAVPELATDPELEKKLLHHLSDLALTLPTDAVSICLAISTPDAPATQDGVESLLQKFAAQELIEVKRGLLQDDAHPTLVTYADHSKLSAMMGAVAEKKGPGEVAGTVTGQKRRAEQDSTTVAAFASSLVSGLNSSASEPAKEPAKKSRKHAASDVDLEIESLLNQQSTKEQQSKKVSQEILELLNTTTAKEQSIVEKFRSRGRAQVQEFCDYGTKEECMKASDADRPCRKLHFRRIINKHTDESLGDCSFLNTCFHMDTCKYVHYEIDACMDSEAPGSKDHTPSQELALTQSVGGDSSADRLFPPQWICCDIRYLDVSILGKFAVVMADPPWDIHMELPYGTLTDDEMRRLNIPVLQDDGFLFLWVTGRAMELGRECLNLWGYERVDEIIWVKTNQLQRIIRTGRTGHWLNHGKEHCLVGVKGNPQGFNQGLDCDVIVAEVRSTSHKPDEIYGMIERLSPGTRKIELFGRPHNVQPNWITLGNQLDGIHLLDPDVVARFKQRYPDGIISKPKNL
Chain of METTL3/METTL14 (Q9HCE5 whole entry partner, species assumed): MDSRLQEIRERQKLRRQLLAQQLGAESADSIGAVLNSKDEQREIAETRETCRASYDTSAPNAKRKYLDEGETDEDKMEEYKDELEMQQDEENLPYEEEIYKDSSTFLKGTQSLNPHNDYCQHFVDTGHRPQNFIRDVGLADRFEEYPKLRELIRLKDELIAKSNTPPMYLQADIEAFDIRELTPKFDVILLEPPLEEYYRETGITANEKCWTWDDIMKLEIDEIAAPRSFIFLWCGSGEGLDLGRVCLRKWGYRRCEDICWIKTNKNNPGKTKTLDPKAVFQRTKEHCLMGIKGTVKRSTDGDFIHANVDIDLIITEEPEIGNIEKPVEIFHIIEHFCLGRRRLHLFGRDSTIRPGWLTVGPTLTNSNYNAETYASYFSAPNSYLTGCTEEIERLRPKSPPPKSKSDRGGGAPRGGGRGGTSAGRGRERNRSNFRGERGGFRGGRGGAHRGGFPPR
Chain of METTL1/WDR4 (Q9UBP6 whole entry, species assumed): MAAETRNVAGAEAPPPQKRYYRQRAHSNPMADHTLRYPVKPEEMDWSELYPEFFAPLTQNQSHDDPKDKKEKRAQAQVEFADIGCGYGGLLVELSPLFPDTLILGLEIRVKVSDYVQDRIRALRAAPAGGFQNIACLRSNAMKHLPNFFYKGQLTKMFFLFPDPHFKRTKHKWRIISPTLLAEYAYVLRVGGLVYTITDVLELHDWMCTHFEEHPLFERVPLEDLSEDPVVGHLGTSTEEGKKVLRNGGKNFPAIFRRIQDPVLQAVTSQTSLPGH
Chain of METTL1/WDR4 (P57081 whole entry partner, species assumed): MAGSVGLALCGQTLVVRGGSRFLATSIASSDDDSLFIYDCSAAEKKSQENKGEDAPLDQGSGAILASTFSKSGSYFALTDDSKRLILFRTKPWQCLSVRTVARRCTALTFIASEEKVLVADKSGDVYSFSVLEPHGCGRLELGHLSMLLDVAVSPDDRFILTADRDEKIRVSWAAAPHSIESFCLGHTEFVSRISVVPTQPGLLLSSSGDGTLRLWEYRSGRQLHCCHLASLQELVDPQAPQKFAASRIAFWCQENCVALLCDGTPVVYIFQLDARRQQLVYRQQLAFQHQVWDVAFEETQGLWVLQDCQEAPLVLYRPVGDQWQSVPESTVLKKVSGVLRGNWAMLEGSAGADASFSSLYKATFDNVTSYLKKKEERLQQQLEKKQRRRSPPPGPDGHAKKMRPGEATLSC

## CNc1ccc2ccc(CC[C@H]3C[C@@H](n4cc(C5CCCC5)c5c(N)ncnc54)[C@H](O)[C@@H]3O)cc2n1 [I-55]
PRMT5-MEP50; [4]
  IC50: < 10 nM
METTL3/METTL14; [5]
  IC50: < 10 nM
MOLM-13 cells [1]; MOLM-13, 96 h
  IC50: < 1000 nM
[2]
  IC50: 1000 to 10000 nM
MOLM-13 cells [3]
  IC50: 1000 to 10000 nM
METTL1/WDR4; [6]
  IC50: > 1000 nM

## Cn1ccc(-c2cn([C@H]3C[C@H](O)[C@@H](COc4ccc5ccc(N6CCC6)nc5c4)O3)c3ncnc(N)c23)n1 [I-164]
PRMT5-MEP50
  IC50: > 1000 nM
METTL3/METTL14
  IC50: < 10 nM
MOLM-13 cells [1]
  IC50: < 1000 nM
[2]
  IC50: < 1000 nM
MOLM-13 cells [3]
  IC50: 1000 to 10000 nM

## CCNc1ccc2ccc(OC[C@H]3O[C@@H](n4cc(Cl)c5c(N)ncnc54)[C@@H](F)[C@@H]3O)cc2n1 [I-234]
PRMT5-MEP50; [4]
  IC50: 10 to 100 nM
METTL3/METTL14; [5]
  IC50: < 10 nM
MOLM-13 cells [1]; MOLM-13, 96 h
  IC50: 1000 to 10000 nM
[2]
  IC50: 1000 to 10000 nM
MOLM-13 cells [3]
  IC50: 1000 to 10000 nM
METTL1/WDR4
  IC50: > 1000 nM

## CNc1ccc2ccc(OC[C@H]3O[C@@H](n4cc([C@@H]5CCCO5)c5c(N)ncnc54)[C@@H](F)[C@@H]3O)cc2n1 [I-152]
PRMT5-MEP50; [4]
  IC50: > 1000 nM
METTL3/METTL14; [5]
  IC50: < 10 nM
MOLM-13 cells [1]; MOLM-13, 96 h
  IC50: < 1000 nM
[2]
  IC50: < 1000 nM
MOLM-13 cells [3]
  IC50: 1000 to 10000 nM

## CNc1ccc2ccc(OC[C@H]3O[C@@H](n4cc(Br)c5c(N)ncnc54)[C@@H](F)[C@@H]3O)cc2n1 [I-46]
PRMT5-MEP50; [4]
  IC50: 10 to 100 nM
METTL3/METTL14; [5]
  IC50: < 10 nM
MOLM-13 cells [1]; MOLM-13, 96 h
  IC50: < 1000 nM
[2]
  IC50: 1000 to 10000 nM
MOLM-13 cells [3]
  IC50: 1000 to 10000 nM
METTL1/WDR4; [6]
  IC50: > 1000 nM

## Cn1ccc(-c2cn([C@H]3C[C@H](O)[C@@H](COc4ccc5ccc(NC6CC6)nc5c4)O3)c3ncnc(N)c23)n1 [I-179]
PRMT5-MEP50
  IC50: 100 to 1000 nM
METTL3/METTL14
  IC50: < 10 nM
MOLM-13 cells [1]
  IC50: < 1000 nM
[2]
  IC50: 1000 to 10000 nM
MOLM-13 cells [3]
  IC50: 1000 to 10000 nM

## CN(C)c1ccc2ccc(CC[C@H]3C[C@@H](n4ccc5c(N)ncnc54)[C@H](O)[C@@H]3O)cc2n1 [I-98]
PRMT5-MEP50; [4]
  IC50: 10 to 100 nM
METTL3/METTL14; [5]
  IC50: 10 to 100 nM
MOLM-13 cells [1]; MOLM-13, 96 h
  IC50: 1000 to 10000 nM
[2]
  IC50: > 10000 nM
MOLM-13 cells [3]
  IC50: > 10000 nM
METTL1/WDR4; [6]
  IC50: > 1000 nM

## CN(C)c1ccc2ccc(OC[C@H]3O[C@@H](n4ccc5c(N)ncnc54)[C@H](O)[C@@H]3O)cc2n1 [I-78]
PRMT5-MEP50; [4]
  IC50: 10 to 100 nM
METTL3/METTL14; [5]
  IC50: 10 to 100 nM
MOLM-13 cells [1]; MOLM-13, 96 h
  IC50: 1000 to 10000 nM
[2]
  IC50: > 10000 nM
MOLM-13 cells [3]
  IC50: > 10000 nM
METTL1/WDR4; [6]
  IC50: > 1000 nM

## CN(C)c1ccc2ccc(OC[C@H]3O[C@@H](n4cc(C5CCCC5)c5c(N)ncnc54)[C@H](O)[C@@H]3O)cc2n1 [I-42]
PRMT5-MEP50; [4]
  IC50: 10 to 100 nM
METTL3/METTL14; [5]
  IC50: < 10 nM
MOLM-13 cells [1]; MOLM-13, 96 h
  IC50: 1000 to 10000 nM
[2]
  IC50: 1000 to 10000 nM
MOLM-13 cells [3]
  IC50: 1000 to 10000 nM
METTL1/WDR4; [6]
  IC50: > 1000 nM

## CNc1ccc2ccc(OC[C@H]3O[C@@H](n4cc(C5CCCC5)c5c(N)ncnc54)C[C@@H]3O)cc2n1 [I-30, (2R,3S,5R)-5-(4-amino-5-cyclopentyl-7H-pyrrolo[2,3-d]pyrimidin-7-yl)-2-(((2-(methylamino)quinolin-7-yl)oxy)methyl)tetrahydrofuran-3-ol]
PRMT5-MEP50; [4]
  IC50: > 1000 nM
METTL3/METTL14; [5]
  IC50: < 10 nM
MOLM-13 cells [1]; MOLM-13, 96 h
  IC50: < 1000 nM
[2]
  IC50: 1000 to 10000 nM
MOLM-13 cells [3]
  IC50: 1000 to 10000 nM
METTL1/WDR4
  IC50: > 1000 nM

## Cn1ccc(-c2cn([C@@H]3O[C@H](COc4ccc5ccc(NC6CCC6)nc5c4)[C@@H](O)[C@@H]3F)c3ncnc(N)c23)n1 [I-183]
PRMT5-MEP50
  IC50: > 1000 nM
METTL3/METTL14
  IC50: < 10 nM
MOLM-13 cells [1]
  IC50: < 1000 nM
[2]
  IC50: < 1000 nM
MOLM-13 cells [3]
  IC50: < 1000 nM
